The subject of the test is Raji (Burkitt's) lymphoma cells. The experiment in a line: MTT assay for 4-day viability of Raji (Burkitt's) lymphoma cells. As to conditions: Homo sapiens, 96 h, Raji cells (highly express MCT1), read-out: approximate potency (EC50). The format is cell-based. The text has this:
Specific Examples 1-52 of compounds of the invention, with estimated EC50 values determined using an MTT assay for 4-day viability of Raji (Burkitt's) lymphoma cells, a cell line known to highly express MCT1 and to be sensitive to small molecule MCT inhibitors,^4 are shown in Table 2. Assay protocols follow those described in the literature.^4 Other assays that are not described here but that are standard in the field, such as an assay for competitive inhibition of transport of radiolabeled lactic acid, an MCT substrate, may also be useful in establishing mechanism of action of these compounds.
Background: Tetrazolium dyes change colour on reduction, which living cells bring about.
As a reminder, the EC50 is the concentration needed to bring the measured effect to its halfway point. As for `Cc1n[nH]c(C)c1Cc1sc2c(c1-c1cccc(CO)c1F)c(=O)n(C)c(=O)n2CC(C)C` [Example 1, 6-((3,5-dimethyl-1H-pyrazol-4-yl)methyl)-5-(2-fluoro-3-(hydroxymethyl)phenyl)-1-isobutyl-3-methylthieno[2,3-d]pyrimidine-2,4(1H,3H)-dione], the EC50 is at most 20 nM.

Turning to `Cc1cc(CO)c(F)c(-c2c(Cc3c(C)n[nH]c3C)sc3c2c(=O)n(C)c(=O)n3CC(C)C)c1` [Example 2, 6-((3,5-dimethyl-1H-pyrazol-4-yl)methyl)-5-(2-fluoro-3-(hydroxymethyl)-5-methylphenyl)-1-isobutyl-3-methylthieno[2,3-d]pyrimidine-2,4(1H,3H)-dione], the EC50 was 100 nM.

With `Cc1n[nH]c(C)c1Cc1sc2c(c1-c1c(F)cc(F)c(CO)c1F)c(=O)n(C)c(=O)n2CC(C)C` [Example 3, 6-((3,5-dimethyl-1H-pyrazol-4-yl)methyl)-1-isobutyl-3-methyl-5-(2,4,6-trifluoro-3-(hydroxymethyl)phenyl)thieno[2,3-d]pyrimidine-2,4(1H,3H)-dione], the EC50 is 1000 to 10000 nM.

`Cc1n[nH]c(C)c1Cc1sc2c(c1-c1cnc(F)c(CO)c1)c(=O)n(C)c(=O)n2CC(C)C` [Example 4, 6-((3,5-dimethyl-1H-pyrazol-4-yl)methyl)-5-(6-fluoro-5-(hydroxymethyl)pyridin-3-yl)-1-isobutyl-3-methylthieno[2,3-d]pyrimidine-2,4(1H,3H)-dione]: the EC50 was 200 nM.

As to `Cc1n[nH]c(C)c1Cc1sc2c(c1-c1cc(F)c(F)c(CO)c1)c(=O)n(C)c(=O)n2CC(C)C` [Example 5, 5-(3,4-difluoro-5-(hydroxymethyl)phenyl)-6-((3,5-dimethyl-1H-pyrazol-4-yl)methyl)-1-isobutyl-3-methylthieno[2,3-d]pyrimidine-2,4(1H,3H)-dione], the EC50 is 160 nM.

As for `Cc1n[nH]c(C)c1Cc1sc2c(c1-c1cc(CO)c(F)cc1F)c(=O)n(C)c(=O)n2CC(C)C` [Example 6, 5-(2,4-difluoro-5-(hydroxymethyl)phenyl)-6-((3,5-dimethyl-1H-pyrazol-4-yl)methyl)-1-isobutyl-3-methylthieno[2,3-d]pyrimidine-2,4(1H,3H)-dione], the concentration for a half-maximal effect (EC50) was at most 20 nM.

With `Cc1n[nH]c(C)c1Cc1sc2c(c1-c1ccc(F)c(CO)c1F)c(=O)n(C)c(=O)n2CC(C)C` [Example 7, 5-(2,4-difluoro-3-(hydroxymethyl)phenyl)-6-((3,5-dimethyl-1H-pyrazol-4-yl)methyl)-1-isobutyl-3-methylthieno[2,3-d]pyrimidine-2,4(1H,3H)-dione], the EC50 is at most 20 nM.

Consider `Cc1n[nH]c(C)c1Cc1sc2c(c1-c1cncc(C(O)C(F)(F)F)c1)c(=O)n(C)c(=O)n2CC(C)C` (stereo not drawn) [Example 8, 6-((3,5-dimethyl-1H-pyrazol-4-yl)methyl)-1-isobutyl-3-methyl-5-(5-(2,2,2-trifluoro-1-hydroxyethyl)pyridin-3-yl)thieno[2,3-d]pyrimidine-2,4(1H,3H)-dione], for which the EC50 was 34 nM.

Turning to `Cc1n[nH]c(C)c1Cc1sc2c(c1-c1ccnc(CO)c1)c(=O)n(C)c(=O)n2CC(C)C` [Example 10, 6-((3,5-dimethyl-1H-pyrazol-4-yl)methyl)-5-(2-(hydroxymethyl)pyridin-4-yl)-1-isobutyl-3-methylthieno[2,3-d]pyrimidine-2,4(1H,3H)-dione], the concentration for a half-maximal effect (EC50) is 90 nM.

For `Cc1n[nH]c(C)c1Cc1sc2c(c1-c1cc(F)cc(CO)c1)c(=O)n(C)c(=O)n2CC(C)C` [Example 11, 6-((3,5-dimethyl-1H-pyrazol-4-yl)methyl)-5-(3-fluoro-5-(hydroxymethyl)phenyl)-1-isobutyl-3-methylthieno[2,3-d]pyrimidine-2,4(1H,3H)-dione], the EC50 was found to be 25 nM.

Consider `Cc1n[nH]c(C)c1Cc1sc2c(c1-c1cncc(CO)c1)c(=O)n(C)c(=O)n2CC(C)C` [Example 12, 6-((3,5-dimethyl-1H-pyrazol-4-yl)methyl)-5-(5-(hydroxymethyl)pyridin-3-yl)-1-isobutyl-3-methylthieno[2,3-d]pyrimidine-2,4(1H,3H)-dione], for which the half-maximal effective concentration (EC50) stood at 75 nM.

As for `Cc1n[nH]c(C)c1Cc1sc2c(c1-c1cccc(C(C)O)c1)c(=O)n(C)c(=O)n2CC(C)C` (stereo not drawn) [Example 13, 6-((3,5-dimethyl-1H-pyrazol-4-yl)methyl)-5-(3-(1-hydroxyethyl)phenyl)-1-isobutyl-3-methylthieno[2,3-d]pyrimidine-2,4(1H,3H)-dione], the EC50 stood at 50 nM.

Consider `Cc1n[nH]c(C)c1Cc1sc2c(c1-c1cccc(C(O)C(F)(F)F)c1)c(=O)n(C)c(=O)n2CC(C)C` (stereo not drawn) [Example 14, 6-((3,5-dimethyl-1H-pyrazol-4-yl)methyl)-1-isobutyl-3-methyl-5-(3-(2,2,2-trifluoro-1-hydroxyethyl)phenyl)thieno[2,3-d]pyrimidine-2,4(1H,3H)-dione], for which the EC50 was below 20 nM.

Take `Cc1n[nH]c(C)c1Cc1sc2c(c1-c1cccc(CO)c1)c(=O)n(C)c(=O)n2CC(C)C` [Example 15, 6-((3,5-dimethyl-1H-pyrazol-4-yl)methyl)-5-(3-(hydroxymethyl)phenyl)-1-isobutyl-3-methylthieno[2,3-d]pyrimidine-2,4(1H,3H)-dione]: the EC50 was below 20 nM.

Regarding `Cc1n[nH]c(C)c1Cc1sc2c(c1-c1ccc(F)c(CO)c1)c(=O)n(C1CC1)c(=O)n2CC(C)C` [Example 16, 3-cyclopropyl-6-((3,5-dimethyl-1H-pyrazol-4-yl)methyl)-5-(4-fluoro-3-(hydroxymethyl)phenyl)-1-isobutylthieno[2,3-d]pyrimidine-2,4(1H,3H)-dione], the EC50 was 220 nM.

For `Cc1cc(CO)c(F)c(-c2c(Cc3c(C)n[nH]c3C)sc3c2c(=O)n(C2CC2)c(=O)n3CC(C)C)c1` [Example 17, 3-cyclopropyl-6-((3,5-dimethyl-1H-pyrazol-4-yl)methyl)-5-(2-fluoro-3-(hydroxymethyl)-5-methylphenyl)-1-isobutylthieno[2,3-d]pyrimidine-2,4(1H,3H)-dione], the 50% effective concentration (EC50) worked out at 100 nM.

On to `Cc1n[nH]c(C)c1Cc1sc2c(c1-c1cc(F)c(F)c(CO)c1)c(=O)n(C1CC1)c(=O)n2CC(C)C` [Example 18, 3-cyclopropyl-5-(3,4-difluoro-5-(hydroxymethyl)phenyl)-6-((3,5-dimethyl-1H-pyrazol-4-yl)methyl)-1-isobutylthieno[2,3-d]pyrimidine-2,4(1H,3H)-dione], for which the EC50 is 900 nM.

For `Cc1n[nH]c(C)c1Cc1sc2c(c1-c1cc(CO)c(F)cc1F)c(=O)n(C1CC1)c(=O)n2CC(C)C` [Example 19, 3-cyclopropyl-5-(2,4-difluoro-5-(hydroxymethyl)phenyl)-6-((3,5-dimethyl-1H-pyrazol-4-yl)methyl)-1-isobutylthieno[2,3-d]pyrimidine-2,4(1H,3H)-dione], the concentration for a half-maximal effect (EC50) turned out to be 70 nM.

For `Cc1n[nH]c(C)c1Cc1sc2c(c1-c1cccc(CO)c1F)c(=O)n(C1CC1)c(=O)n2CC(C)C` [Example 20, 3-cyclopropyl-6-((3,5-dimethyl-1H-pyrazol-4-yl)methyl)-5-(2-fluoro-3-(hydroxymethyl)phenyl)-1-isobutylthieno[2,3-d]pyrimidine-2,4(1H,3H)-dione], the concentration giving a half-maximal response (EC50) is at most 20 nM.

In the case of `Cc1n[nH]c(C)c1Cc1sc2c(c1-c1cc(CO)ccc1F)c(=O)n(C1CC1)c(=O)n2CC(C)C` [Example 22, 3-cyclopropyl-6-((3,5-dimethyl-1H-pyrazol-4-yl)methyl)-5-(2-fluoro-5-(hydroxymethyl)phenyl)-1-isobutylthieno[2,3-d]pyrimidine-2,4(1H,3H)-dione], the half-maximal effective concentration (EC50) is at most 20 nM.

On to `Cc1n[nH]c(C)c1Cc1sc2c(c1-c1ccnc(CO)c1)c(=O)n(C1CC1)c(=O)n2CC(C)C` [Example 23, 3-cyclopropyl-6-((3,5-dimethyl-1H-pyrazol-4-yl)methyl)-5-(2-(hydroxymethyl)pyridin-4-yl)-1-isobutylthieno[2,3-d]pyrimidine-2,4(1H,3H)-dione], for which the concentration for a half-maximal effect (EC50) is at most 20 nM.

Consider `Cc1n[nH]c(C)c1Cc1sc2c(c1-c1cccc(CO)c1)c(=O)n(C1CC1)c(=O)n2CC(C)C` [Example 24, 3-cyclopropyl-6-((3,5-dimethyl-1H-pyrazol-4-yl)methyl)-5-(3-(hydroxymethyl)phenyl)-1-isobutylthieno[2,3-d]pyrimidine-2,4(1H,3H)-dione], for which the EC50 is 1000 nM.

For `CC(C)Cc1nn(C)c(=O)c2c(-c3ncc(CO)s3)n(Cc3cccc4ccccc34)cc12` [Example 25, 7-(5-(hydroxymethyl)thiazol-2-yl)-4-isobutyl-2-methyl-6-(naphthalen-1-ylmethyl)-2,6-dihydro-1H-pyrrolo[3,4-d]pyridazin-1-one], the EC50 is 300 nM.

With `CC(C)Cc1nn(C)c(=O)c2c(-c3csc(CO)n3)n(Cc3cccc4ccccc34)cc12` [Example 26, 7-(2-(hydroxymethyl)thiazol-4-yl)-4-isobutyl-2-methyl-6-(naphthalen-1-ylmethyl)-2,6-dihydro-1H-pyrrolo[3,4-d]pyridazin-1-one], the EC50 stood at 90 nM.

As for `CC(C)Cc1nn(C)c(=O)c2c(-c3ccc(F)c(CO)c3F)n(Cc3cccc4ccccc34)cc12` [Example 27, 7-(2,4-difluoro-3-(hydroxymethyl)phenyl)-4-isobutyl-2-methyl-6-(naphthalen-1-ylmethyl)-2,6-dihydro-1H-pyrrolo[3,4-d]pyridazin-1-one], the EC50 was determined as 80 nM.

Turning to `CC(C)Cc1nn(C)c(=O)c2c(-c3cc(CO)ccc3F)n(Cc3cccc4ccccc34)cc12` [Example 28, 7-(2-fluoro-5-(hydroxymethyl)phenyl)-4-isobutyl-2-methyl-6-(naphthalen-1-ylmethyl)-2,6-dihydro-1H-pyrrolo[3,4-d]pyridazin-1-one], the EC50 stood at 40 nM.

In the case of `CC(C)Cc1nn(C)c(=O)c2c(-c3cccc(CO)c3F)n(Cc3cccc4ccccc34)cc12` [Example 29, 7-(2-fluoro-3-(hydroxymethyl)phenyl)-4-isobutyl-2-methyl-6-(naphthalen-1-ylmethyl)-2,6-dihydro-1H-pyrrolo[3,4-d]pyridazin-1-one], the EC50 turned out to be 80 nM.
